In brackets after ≈: the same amount, converted by molar mass. Like-named read-outs stand apart in the source and are kept apart here.
How the values were obtained:
[1] = system: L. donovani amastigotes; test: INMAC assay: intramacrophage L. donovani in differentiated THP-1 cells; format: cell-based, Leishmania donovani; settings: for EC50 / IC50: Leishmania donovani; for IC50: THP-1, read-out: LdInMac pIC50 (converted); for LdInMac pIC50: supplementary csv; for loss of potency: INMAC, relative to compound 4
Procedure: (§1) Intramacrophage L. donovani Assay. This assay was conducted as previously described, except for […]

[2] = system: THP-1 cells; test: THP-1 host cell read-out of the INMAC assay; format: cell-based; settings: for EC50 / IC50: Homo sapiens
Procedure: as §1

[3] = Kinetic aqueous solubility by CLND; format: physicochemical
Procedure: We had successfully used these criteria in the hit to lead stage to identify compounds for in vivo proof-of-concept studies in another program, which subsequently led to the identification of preclinical candidate DDD853651/GSK3186899 active against CRK12.[7] […] A pharmacokinetic (PK) study was thus performed, dosed at 10 mg/kg po and 3 mg/kg iv. […] With the limited knowledge of the PK/PD drivers for the treatment of VL, we considered this to be a suitable profile for the progression of 4 into a previously reported mouse efficacy model of VL,[6],[7],[17],[18] where it was dosed twice daily at 50 mg/kg ip in order to further maximize exposure and give the best chance of achieving proof-of-concept.
(§2) Intramacrophage L. donovani Assay. This assay was conducted as previously described, except for compound exposure time, which was 96 h instead of 72 h.4
(§3) Intrinsic Clearance. This assay was conducted as previously described.5 Aqueous Solubility. This assay was conducted as previously described.6
(§4) FaSSIF Solublity. This assay was conducted as previously described.5,7
(§5) In vivo Mouse Efficacy Studies. In vivo studies were carried out as previously described, with minor modifications.7 Briefly: Control drug used was Miltefosine (30 mg/kg orally, twice daily for 5 days), vehicle used was 10% (v/v) dimethyl sulfoxide (DMSO), 40% polyethylene glycol 400, and 50% deionized water (10 Ml/kg orally, twice daily for 5 days) and mice were treated with test compound intraperitoneally (50 mg/kg twice daily for 5 days). 5
(§6) All regulated procedures on living animals were carried out under the authority of a project license issued by the Home Office under the Animals (Scientific Procedures) Act 1986, as amended in 2012 (and in compliance with EU Directive EU/2010/63). Infected animals had access to food and water ad libitum and were housed under a 12 hour light/dark photoperiod. Animals used in these experiments were female NMRI and Balb/c mice (Harlan, UK).
(§7) Test compound DDD01008714 was dosed orally (P.O.) at 10 mg free base/kg (dose volume 10 mL/kg; dose vehicle: 10% (vol/vol) dimethyl sulfoxide (DMSO), 40% polyethylene glycol 400 (PEG400) and 50% deionized water) to female NMRI mice (n = 3) or intravenously (I.V.) at 3 mg free base/kg (dose volume 5 mL/kg; dose vehicle: 10% (vol/vol) dimethyl sulfoxide (DMSO) and 90% Saline) to female Balb/c mice (n = 3). Blood samples (10 μL) where taken from the tail vein of […]

[4] = FaSSIF (fasted state simulated intestinal fluid) solubility; format: physicochemical
Procedure: as §2, §3, §4, §5, §6, §7

[5] = Mouse liver microsomal intrinsic clearance; format: in vitro ADME; settings: for Mouse CLi: mouse liver microsomes; for Cli (mouse, ml/min/g): supplementary csv
Procedure: as §2, §3, §4, §5, §6, §7

[6] = THP-1, Table 6, at least three replicates, SD ≤0.4, read-out: INMAC pEC50 (converted)
[7] = THP-1, Table 6, read-out: THP-1 pEC50 (converted)
[8] = THP-1, supplementary csv, read-out: THP1 pIC50 (converted)
[9] = Table 6, kinetic, CLND, read-out: Aq. solubility
[10] = THP-1, Table 5, at least three replicates, SD ≤0.4, read-out: INMAC pEC50 (converted)
[11] = Table 5, at least three replicates, SD ≤0.4
[12] = THP-1, Table 5, read-out: THP-1 pEC50 (converted)
[13] = THP-1, Table 2, at least three replicates, SD ≤0.4, read-out: INMAC (pEC50) (converted)
[14] = THP-1, Table 2, read-out: THP-1 (pEC50) (converted)
[15] = supplementary csv, read-out: Aqueous Solubility
[16] = Table 5, kinetic, CLND, read-out: Aq. solubility

Row | Compound | EC50 [1, 6] [µM] | EC50 [2, 7] [µM] | IC50 [2, 8] [µM] | solubility at 4 h ([4]; pH 6.5, Table 6) [µM] | solubility ([4]; supplementary csv) [µM] | Mouse CLi ([5]; Table 6) [mL/min/g] | Cli (mouse, ml/min/g) [5] [mL/min/g] | IC50 [1] [µM] | INMAC pEC50 [1, 11] | Mouse CLi ([5]; Table 5) [mL/min/g] | also measured
1 | O=C(Nc1ccc(F)c(-c2ccn3c(CN4CCOCC4)cnc3n2)c1)N1CCCC1 [Compound 32, N-(4-Fluoro-3-(3-(morpholinomethyl)imidazo[1,2-a]pyrimidin-7-yl)phenyl)pyrrolidine-1-carboxamide] | 10 | 63.1 | 63.1 | 728 (≈ 309 µg/mL) | 730 (≈ 310 µg/mL) | 16 | 16 | – | – | – | solubility [3, 9]: ≥ 348 µM
2 | Cn1c(-c2cc(NC(=O)N3CCCC3)ccc2F)cc2cc(N3CCOCC3)cnc21 [Compound 19, N-[4-Fluoro-3-(1-methyl-5-morpholino-pyrrolo[2,3-b]pyridin-2-yl)phenyl]pyrrolidine-1-carboxamide] | – | – | > 50.1 | – | – | – | 2.4 | > 50.1 | inactive | 2.4 | EC50 [1, 10]: > 50.1 µM; EC50 [2, 12]: > 50.1 µM
3 | O=C(Nc1ccc(F)c(-c2ccn3c(-c4ccccc4)cnc3n2)c1)N1CCCC1 [Compound 28, N-(4-Fluoro-3-(3-phenylimidazo[1,2-a]pyrimidin-7-yl)phenyl)pyrrolidine-1-carboxamide] | 0.251 | 50.1 | 50.1 | 7 (≈ 2.81 µg/mL) | 8 (≈ 3.21 µg/mL) | 2.5 | 2.5 | – | – | – | solubility [3, 9]: 39 µM (≈ 15.7 µg/mL)
4 | (R)-N-(4-Fluoro-3-(3-(3-methylmorpholino)imidazo[1,2-a]pyrimidin-7-yl)phenyl)pyrrolidine-1-carboxamide [Compound 39] | – | – | – | – | – | 2.7 | 2.7 | – | – | – | INMAC pEC50 ([1]; Table 6, at least three replicates, SD ≤0.4): 5.9; LdInMac pIC50 [1]: 5.9; THP-1 pEC50 ([2]; Table 6): 4.3; THP1 pIC50 ([2]; supplementary csv): 4.3; solubility [3, 9]: ≥362 µM; Aqueous Solubility ([3]; supplementary csv): ≥ 360 µM; FaSSIF solubility ([4]; Table 6): 1,322 μM; FaSSIF solubility ([4]; supplementary csv): >1000 µM
5 | O=C(Nc1cccc(-c2cn3cc(N4CCOCC4)cnc3n2)n1)N1CCCC1 [Compound 9, N-(6-(6-Morpholinoimidazo[1,2-a]pyrimidin-2-yl)pyridin-2-yl)pyrrolidine-1-carboxamide] | – | – | > 50.1 | – | 81 (≈ 31.9 µg/mL) | – | <0.5 | > 50.1 | – | – | loss of potency [1]: > 10 fold; EC50 [1, 13]: > 50.1 µM; EC50 [2, 14]: > 50.1 µM; solubility ([3]; Table 2, kinetic, CLND, read-out: Aq. solubility): ≥ 476 µM; solubility [3, 15]: ≥ 480 µM; solubility at 4 h ([4]; pH 6.5, Table 2): 80 µM (≈ 31.5 µg/mL); Mouse CLi ([5]; Table 2): <0.5 mL/min/g
6 | O=C(Nc1cccc(-c2cc3cc(-c4ccccc4)cnc3[nH]2)c1)N1CCCC1 [Compound 17, N-(3-(5-Phenyl-1H-pyrrolo[2,3-b]pyridin-2-yl)phenyl)pyrrolidine-1-carboxamide] | – | – | > 50.1 | – | – | – | 1.7 | > 50.1 | inactive | 1.7 | EC50 ([1]; THP-1, read-out: INMAC pEC50 (converted)): > 50.1 µM; EC50 ([2]; THP-1, read-out: THP-1 pEC50 (converted)): > 50.1 µM; solubility [3, 16]: 3 µM (≈ 1.15 µg/mL)
7 | O=C(Nc1cccc(-c2cc3ncc(-c4ccccc4)cn3n2)c1)N1CCCC1 [Compound 16, N-(3-(6-Phenylpyrazolo[1,5-a]pyrimidin-2-yl)phenyl)pyrrolidine-1-carboxamide] | – | – | > 50.1 | – | – | – | 3.6 | > 50.1 | inactive | 3.6 | EC50 [1, 10]: > 50.1 µM; EC50 [2, 12]: > 50.1 µM
8 | CN1CCOCC1c1cnc2nc(-c3cc(NC(=O)N4CCCC4)ccc3F)ccn12 (stereo not drawn) [Compound 33, N-(4-Fluoro-3-(3-(4-methylmorpholin-3-yl)imidazo[1,2-a]pyrimidin-7-yl)phenyl)pyrrolidine-1-carboxamide] | 5.01 | 50.1 | 50.1 | 2340 (≈ 994 µg/mL) | > 1000 | 3.8 | 3.8 | – | – | – | –
9 | O=C(Nc1cccc(-c2cn3cc(N4CCOCC4)cnc3n2)c1)N1CCCC1 [Compound 6, N-(3-(6-Morpholinoimidazo[1,2-a]pyrimidin-2-yl)phenyl)pyrrolidine-1-carboxamide] | – | – | > 50.1 | – | – | – | 0.8 | – | – | – | loss of potency [1]: > 10 fold; EC50 [1, 13]: 12.6 µM; EC50 [2, 14]: > 50.1 µM; Mouse CLi ([5]; Table 2): 0.8 mL/min/g
10 | N-(3-(7-Phenylimidazo[1,2-b][1,2,4]triazin-3-yl)phenyl)pyrrolidine-1-carboxamide [Compound 27] | – | – | – | – | – | – | 3.3 | – | 5.9 | 3.3 | LdInMac pIC50 [1]: 5.9; THP-1 pEC50 ([2]; Table 5): <4.3; THP1 pIC50 ([2]; supplementary csv): <4.3; solubility ([4]; Table 5): 3.0 µM
11 | O=C1CN(c2cnc3nc(-c4cc(NC(=O)N5CCCC5)ccc4F)ccn23)CCN1 [Compound 37, N-(4-Fluoro-3-(3-(3-oxopiperazin-1-yl)imidazo[1,2-a]pyrimidin-7-yl)phenyl)pyrrolidine-1-carboxamide] | > 50.1 | > 50.1 | > 50.1 | 815 (≈ 345 µg/mL) | 820 (≈ 347 µg/mL) | 1.1 | 1.1 | > 50.1 | – | – | –
12 | O=C(Nc1ccc(F)c(-c2cc3nc(N4CCOCC4)cnc3[nH]2)c1)N1CCCC1 [Compound 18, N-(4-Fluoro-3-(2-morpholino-5H-pyrrolo[2,3-b]pyrazin-6-yl)phenyl)pyrrolidine-1-carboxamide] | – | – | – | – | – | – | – | > 50.1 | inactive | 10 | EC50 [1, 10]: > 50.1 µM; IC50 ([2]; THP-1, read-out: THP1 pIC50 (converted)): > 50.1 µM; EC50 [2, 12]: > 50.1 µM; solubility [3, 16]: 135 µM (≈ 55.4 µg/mL); solubility [3, 15]: 10 µM (≈ 4.1 µg/mL)
13 | O=C(Nc1cccc(-c2nc3ccccc3o2)c1)c1ccco1 [Compound 14] | – | – | > 50.1 | – | – | – | 50 | > 50.1 | – | – | EC50 ([1]; THP-1, Table 3, at least three replicates, SD ≤0.4, read-out: INMAC (pEC50) (converted)): > 50.1 µM; INMAC pEC50 ([1]; Table 3, at least three replicates, SD ≤0.4): no activity; EC50 ([2]; THP-1, Table 3, read-out: THP-1 (pEC50) (converted)): > 50.1 µM; Mouse CLi ([5]; Table 3): 50 mL/min/g

From publication PMC8154566, “Scaffold-Hopping Strategy on a Series of Proteasome Inhibitors Led to a Preclinical Candidate for the Treatment of Visceral Leishmaniasis” (Journal of Medicinal Chemistry, 2021)
